These results are taken from PubChem BioAssay (NCI).

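In this assay, cells in 96-well plates receive the compound at five concentrations for 48 hours. Endpoints are linearly interpolated between the surrounding concentrations. The concentration for 50% growth inhibition is given as GI50. Definition used: TGI = concentration required for complete inhibition of growth.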 A value given as a limit tells only on which side of the number the result lay.

What all share (assay): growth of human tumour cells (NCI), 48 h
Assay [1] has as its system K-562 leukemia.
Assay [2] deals with UACC-62 melanoma.
Assay [3] concerns KM12 colon.
The subject of assay [4] is BT-549 breast.
Assay [5] has as its system SF-295 CNS.
For assay [6], the system named is ACHN renal.
Assay [7] relates to HCT-15 colon.
For assay [8], the system named is SK-MEL-5 melanoma.
In assay [9] the test system is HCC-2998 colon.
Assay [10] relates to UO-31 renal.

On to `COc1ccc(-c2cc3c4c(nc5ccccc5c4c2)CC(c2cc(OC)c(OC)c(OC)c2)O3)cc1` (centres undefined), for which the GI50 in assay [1] was 3.37 µM; in assay [2] it was 3.54 µM; in assay [3], 3.78 µM; in [4], 2.92 µM; in assay [5] it was 3.5 µM; in [6] it was 1.58 µM. In addition, the values for the GI50 in assay [7], in assay [8] and in [9] were 3.73 µM, 2.67 µM and 4.32 µM, respectively. The TGI in assay [1] is greater than 100 µM; in [2], 20.1 µM; in assay [3], greater than 100 µM; in [4], 31.7 µM; in assay [5], 12.5 µM; in [6], 3.11 µM. The TGI in assay [7] was greater than 100 µM; in [8], 8.27 µM; in assay [9], greater than 100 µM.

Turning to `COc1cc2c(cc1OC)C13CCN4CC5=CCOC(CC(=O)O)C(C5CC41)C3N2` (centres undefined), the TGI in assay [1], in [2], in assay [10], in [3], in [4] and in [5] was greater than 100 µM throughout. In addition, the TGI in [6], in [7] and in assay [8] was greater than 100 µM in each case.

With `COCCNCC(O)Cn1c2ccc(Cl)cc2c2cc(Cl)ccc21` (centres undefined), the GI50 is 2.19 µM in assay [1]; 1.75 µM in assay [10]; 1.9 µM in assay [3]; 2.06 µM in [4]; 1.93 µM in [5]; 1.87 µM in assay [6]. Besides, the GI50 is 2.06 µM in assay [7], 1.71 µM in [8] and 1.81 µM in assay [9]. Besides, the TGI in assay [1] is 4.64 µM; in [10], 4.17 µM; in assay [3], 3.42 µM; in assay [4] it was 4.36 µM; in assay [5] it was 4.28 µM; in assay [6], 3.76 µM. Also, the TGI in [7] came out at 5 µM; in assay [8], 3.18 µM; in [9] it was 3.45 µM.

For the compound `O=C1Nc2ccc(Cl)cc2/C1=C\c1c(-c2ccc(F)cc2)nc2ccccn12`, the GI50 was 2.58 µM in assay [2]; 2.1 µM in [10]; 2.04 µM in assay [3]; 2.46 µM in [4]; 1.87 µM in assay [5]; 3.25 µM in assay [6]. The GI50 in assay [7] is 3.15 µM; in [8] it was 2.38 µM; in assay [9] it was 2.01 µM. Moreover, the TGI in assay [2] came out at 11.5 µM; in assay [10], 5.61 µM; in assay [3], 4.61 µM; in [4] it was 6.72 µM; in [5], 4.23 µM; in assay [6], 11.4 µM. Further, the values for the TGI in [7], in assay [8] and in assay [9] were 16.2 µM, 7.45 µM and 5.1 µM, respectively.

For `c1ccc2c(c1)O[As](O[As]1Oc3ccccc3O1)O2`, the GI50 in assay [1] is 1.66 µM; in assay [10], 1.97 µM; in assay [3], 7.79 µM; in assay [4], 1.22 µM; in [5] it was 6.48 µM; in assay [6], 6.47 µM. Further, the GI50 in assay [7] is 2.33 µM; in [8] it was 1.55 µM; in assay [9], 4.96 µM. Besides, the TGI in assay [1] was found to be 7.28 µM; in assay [10], 11.3 µM; in assay [3] it was 20.6 µM; in [4], 6.55 µM; in assay [5], 22.9 µM; in assay [6], 21.4 µM. The TGI in [7] worked out at 17 µM; in [8], 3.69 µM; in assay [9], 18.4 µM.

As for `O=C1OCC(c2ccc(O)c(O)c2)=C1c1cc(O)c(O)c(O)c1`, the GI50 in [1] was 21.2 µM; in [2] it was 52.7 µM; in assay [10], 63.4 µM; in assay [3], 23.8 µM; in [4], 39 µM; in assay [5] it was 14.6 µM. The GI50 in assay [6] is 33.3 µM; in assay [7], 19.3 µM; in assay [8], 38.2 µM. For the same compound, the TGI in assay [1] is 46.1 µM; in assay [2] it was greater than 100 µM; in assay [10], greater than 100 µM; in [3] it was 55.6 µM; in [4] it was greater than 100 µM; in assay [5] it was 30.9 µM. In addition, the figures for the TGI in [6], in assay [7] and in [8] were greater than 100 µM, 44.1 µM and greater than 100 µM, respectively.

As to `COc1cc2c(-c3nc4cc(Cl)c(F)cc4s3)cc(=O)oc2c(C)c1OC`, the GI50 in assay [2] was 1.3 µM; in assay [10], 0.154 µM; in assay [4], 0.648 µM; in [5] it was 1.01 µM; in [6] it was 1.36 µM; in [8], 1.23 µM. Also, the GI50 in [9] was 2.4 µM. Moreover, the TGI in [2] was 2.69 µM; in [10] it was 0.339 µM; in [4] it was 1.82 µM; in assay [5], 2.34 µM; in [6], 2.81 µM; in assay [8] it was 2.56 µM. The compound also yielded a TGI in [9] of 4.29 µM.

For the compound `O=C(NO)c1ccc(C(=O)NO)cc1`, the TGI in assay [1], in assay [2], in assay [10], in [3], in assay [5] and in assay [6] was greater than 100 µM in each case. The TGI in assay [7] is greater than 100 µM; in assay [8], greater than 100 µM; in [9] it was 45.5 µM.

For the compound `CC(=O)[CH-]C(=O)c1ccccc1.CC(=O)[CH-]C(=O)c1ccccc1.[Nd+3].[OH-].[OH3+]`, the GI50 in assay [1], in assay [2], in assay [10], in assay [3], in assay [5] and in assay [6] was greater than 100 µM throughout. In addition, the GI50 in assay [7], in assay [8] and in assay [9] was greater than 100 µM throughout. For the same compound, the TGI in [1], in assay [2], in assay [10], in assay [3], in assay [5] and in assay [6] was greater than 100 µM throughout. For the same compound, the TGI in assay [7], in assay [8] and in assay [9] was greater than 100 µM throughout.

In the case of `COc1cc2c(cc1OC)C1c3ccccc3C(C#N)(C2)N(C(=O)c2ccccc2)C1O` (centres undefined), the TGI in assay [1], in [2], in [10], in assay [3], in assay [5] and in [6] was greater than 100 µM each time. Besides, the values for the TGI in assay [7], in [8] and in [9] were greater than 100 µM, 90 µM and greater than 100 µM, respectively.
